Test results taken from article PMC4767720 (Drugs in R&D, 2016).

How the values were obtained:
[1] = Ketoconazole interaction study, plasma pharmacokinetics; type: in vivo, human
[2] = Safety and tolerability assessments in the three clinical studies; type: in vivo, human
syk = conditions: statement of the introduction, no reference given; cited from earlier work
[3] = Verapamil interaction study, plasma pharmacokinetics; type: in vivo, human
[4] = 10 μM R406, 1 mg protein/mL, 15 min
[5] = Microsomal stability of R406 in human hepatic microsomes; type: in vitro ADME; conditions: R406 1 μM, 0.1 mg microsomal protein, NADPH 1 mM, 37 °C, pH 7.4
[6] = Rifampicin interaction study, plasma pharmacokinetics; type: in vivo, human
[7] = R406, 80 mg fostamatinib + ketoconazole (P2), n=8
[8] = R406, 80 mg fostamatinib alone (P1), n=8
[9] = R406, 80 mg fostamatinib, ketoconazole 200 mg twice daily
[10] = R406 in plasma, single oral 80 mg fostamatinib alone (P1), n=8
[11] = R406, 150 mg fostamatinib alone (P1), n=15
[12] = R406 in plasma, single oral 150 mg fostamatinib alone (P1), n=15
[13] = R406, 150 mg fostamatinib + rifampicin (P2), n=15

COc1cc(Nc2ncc(F)c(Nc3ccc4c(n3)N(COP(=O)(O)O)C(=O)C(C)(C)O4)n2)cc(OC)c1OC [Fostamatinib]
plasma levels of R788 ([1]; 80 mg fostamatinib with ketoconazole-placebo or with ketoconazole): negligible | highest plasma concentration of R788 obtained in any subject ([1]; 80 mg fostamatinib with placebo or ketoconazole): < 7 ng/mL | time post-dose beyond which no quantifiable R788 (above 0.5 ng/mL) was obtained ([1]; any subject): 2 h | tolerability ([2]; all three clinical studies, alone and in combination with a CYP3A4 inducer/inhibitor): well tolerated | deaths, serious AEs, withdrawals due to AEs, severe AEs ([2]; any of the three studies): no deaths, serious AEs, withdrawals due to AEs or severe AEs | treatment-emergent AEs in subjects receiving fostamatinib and ketoconazole ([2]; ketoconazole interaction study): No treatment-emergent AEs | total AEs reported ([2]; ketoconazole interaction study, all treatments, N=8): eight | total AEs recorded ([2]; rifampicin interaction study, all arms, all mild): four | AEs considered related to administration of fostamatinib ([2]; verapamil interaction study): None | total AEs reported ([2]; verapamil interaction study, one AE per treatment arm, one mild, two moderate): three | activity against syk compared with R406 (syk): much less active

COc1cc(Nc2ncc(F)c(Nc3ccc4c(n3)NC(=O)C(C)(C)O4)n2)cc(OC)c1OC [R406]
increase in R406 exposure with ketoconazole co-administration ([1]; 80 mg fostamatinib, ketoconazole 200 mg twice daily): 2 fold | tmax, median [1, 7]: 2.00 h | t½, geometric mean (GCV %) [1, 7]: 17.7 (31.9) h | tmax, median [1, 8]: 1.25 h | t½, geometric mean (GCV %) [1, 8]: 13.6 (32.1) h | average increase in AUC0–∞ after co-administration of ketoconazole [1, 9]: 102% | average increase in Cmax after co-administration of ketoconazole [1, 9]: 37% | average t½ ([1]; R406, fostamatinib alone): 14.2 h | tmax (value of the text, not the median) ([1]; R406, fostamatinib plus ketoconazole): 1.69 h | average t½ ([1]; R406, fostamatinib with ketoconazole co-administration): 18.4 h | AUC0–∞, geometric mean (GCV %) [1, 10]: 3690 (19.9) ng·h/mL | Cmax, geometric mean (GCV %) [1, 10]: 325 (13.7) ng/mL | effect of verapamil co-administration on R406 Cmax ([3]; 150 mg fostamatinib): no consistent effect | effect of verapamil on R406 tmax ([3]; 150 mg fostamatinib): no consistent effect | subjects with higher R406 AUC after verapamil co-administration ([3]; 150 mg fostamatinib, verapamil 80 mg three times daily): 10 of the 13 | t½, geometric mean (GCV %) ([3]; R406, 150 mg fostamatinib + verapamil (P2), n=13): 19.1 (51.1) h | tmax, median ([3]; R406, 150 mg fostamatinib + verapamil (P2), n=14): 1.50 h | tmax, median [3, 11]: 1.48 h | t½, geometric mean (GCV %) [3, 11]: 13.5 (28.4) h | AUC0–∞, geometric mean (GCV %) [3, 12]: 6380 (36.1) ng·h/mL | Cmax, geometric mean (GCV %) [3, 12]: 588 (45.7) ng/mL | major metabolite [4]: para-O-demethylated R406, R529 | microsomal half-life [5]: 0.407 h | reduction in R406 Cmax with rifampicin co-administration ([6]; 150 mg fostamatinib, rifampicin 600 mg once daily): ~60% | effect of rifampicin co-administration on tmax ([6]; R406, 150 mg fostamatinib): no consistent effect | tmax, median [6, 13]: 1.00 h | t½, geometric mean (GCV %) [6, 13]: 10.8 (38.6) h | tmax, median [6, 11]: 2.00 h | t½, geometric mean (GCV %) [6, 11]: 15.0 (30.3) h | AUC0–∞, geometric mean (GCV %) [6, 12]: 6540 (48.5) ng·h/mL | Cmax, geometric mean (GCV %) [6, 12]: 573 (58.7) ng/mL

COc1cc(Nc2ncc(F)c(Nc3ccc4c(n3)NC(=O)C(C)(C)O4)n2)cc(OC)c1O [R529]
activity against syk compared with R406 (syk): much less active
